Here are results for one molecule from US20220089602A1, “COMPOUNDS THAT INDUCE FERROPTIC CELL DEATH” (The Board of Trustees of the University of Illinois, priority 2019, published 2022).

Entries after “also recorded” stand apart in the source; their conditions may differ.

Data set [1] in a line: Pharmacokinetic assessment. The format is in vivo, C57BL/6 mice. On the procedure:
The protocol was approved by the IACUC at the University of Illinois at Urbana-Champaign (Protocol Number: 14173). In these studies, 10- to 12-week-old female C57BL/6 mice (purchased from Charles River) were used. Ferroptocide was formulated in 100% PEG400. Mice were treated with ferroptocide (40 mg/kg) via i.p. with three mice per time point (15, 30, 45, 60, 120, 240, 480, and 1440 min). At specific time points, mice were sacrificed, and blood was collected, centrifuged; the serum was frozen at −80° C. until analysis. The proteins in a 50 μL aliquot of serum were precipitated by the addition of 50 μL acetonitrile and the sample was centrifuged to remove the proteins. Serum concentrations of ferroptocide were determined by reverse phase HPLC (Shimadzu Corporation, Japan). PK parameters were determined using GraphPad Prism Version 5.00 for Windows.

In a further data set the target is T1, GPX4 (Homo sapiens, UniProt P36969).
T1 construct: endogenous in cells; host or cells: ES-2 cells
Put plainly: GPX4 LC-MS based activity assay (PCOOH). The format is cell-based. As to conditions: 10 μM, 1 hr, ES-2 cells. On the procedure:
1 million ES-2 cells/well, 6 well plate were allowed to attach overnight and then treated with DMSO, 10 μM of each compound: ferroptocide, raptinal, and RSL3 for 1 hr. GPX4 enzymatic activity assay was performed with a GPX4 specific substrate, phosphatidylcholine hydroperoxide (PC—OOH) as described previously with minor modifications (Cell 156, 317-331, (2014)). PCOOH was prepared as reported by Roveri and coworkers (Enzymol. Vol. 233 202-212 (Academic Press, 1994)) but using soybean lipoxidase type I-B (L7395, Milipore Sigma). Cells were washed with PBS and lysed by liquid nitrogen freeze-thaw method in the assay buffer (137 mM NaCl, 2.7 mM KCl, 8 mM Na2HPO4, 2 mM KH2PO4, 1 mM EDTA, 0.1 mM DFO; pH 7.4). Cell lysates were cleared by centrifugation at 14,000 rpm for 10 min at 4° C. Bradford assay was used to determine protein concentration; 200 μg of protein or assay buffer (PCOOH control sample) was mixed with 10 μL PC—OOH in methanol, 5 mM reduced glutathione, and assay buffer to a final reaction volume of 500 μL. The reaction mixture was incubated at 37° C. for 15 mins and extracted with 250 μL chloroform:methanol (2:1) solution. The lipid extract was evaporated under nitrogen and re-dissolved in 100% methanol before injecting into the LC-MS/MS instrument for PCOOH detection.

The target of data set [2] is T2, purified human thioredoxin (Homo sapiens, UniProt P10599).
T2 construct: purchased Cayman Chemical Fluorescent Thioredoxin Activity Assay kit #20039
Description: Thioredoxin activity assay, biochemical (in vitro). The note with it: 30 min, versus PMX464 and PX-12. On the procedure:
HCT 116 cells (1×10^6 cells/flask) were treated with DMSO, 10 μM ferroptocide, 50 μM PMX464, or 50 μM PX-12 for 30 min. Cells were harvested by centrifugation, resuspended in the assay buffer and lysed via sonication. For each condition, 20 μg of cell lysate was used to measure the activity thioredoxin activity following manufacturer' protocol (Cayman Chemical, Fluorescent Thioredoxin Activity Assay kit #20039) in a 96-well black-walled plate. For in vitro studies, human thioredoxin (10 μL of 0.2 μM solution) was used in addition to thioredoxin reductase (10 μL of 1.0 μM solution), 1 μl of DMSO, ferroptocide, […], or PX-12 at indicated concentrations, 5 μL of NADPH (diluted according to manufacturer's instructions), and assay buffer to a final volume of 75 μL. The plate was incubated at 37° C. for 30 min followed by immediate addition of 20 μL fluorescent substrate per each well (diluted as instructed in the assay kit). Fluorescence was monitored over 1 hr at 520 nm after excitation at 480 nm in a SpectraMax M3 (Molecular Devices) instrument at 37° C.

The test system of data set [3] is primary cancer cells from patients with metastatic cancers. Put plainly: 72 hr cell viability Alamar Blue assay in primary patient-derived cells. The format is cell-based, human. As to conditions: versus cisplatin, 5-FU, etoposide, PAC-1. On the procedure:
Cells were grown at 37° C. under a humidified 5% CO2 atmosphere, in a culture medium consisting of high-glucose (Life Technology) DMEM media for Mia PaCa-2, D54, U87, K7-M2, SK-MEL-5, and 3LL cells or RPMI 1640 for ES-2, HCT 116, MDA-MB-231, A549, T47D, B16-F10, and BT-549 cells or McCoy's 5A media for HT29 cells. All media were supplemented with 10% FBS (Gemini), penicillin (50 IU/ml), streptomycin (50 μg/ml) and glutamine (2 mM) (Cellgro). Primary cells were isolated from pleural effusions of metastatic patients at Carle Foundation Hospital (IRB #15149) following a protocol as described previously (Med. Sci. 2, 70-81, (2014)).
To a 384-well plate, 40 μL of 1.25× compound dilution or 1.25% DMSO-containing media was added (final volume of 1% DMSO). Concentrations of compounds tested were 100 μM to 100 nM. On each plate at least 3 technical replicates per compound were performed. Next, 10 μL of a 100,000 cells/mL suspension was added to each well, yielding a final concentration of 1,000 cells/well. To three wells in column 2 was added 1 μL of 10 mM doxorubicin (final concentration of 200 μM) as positive control of cell death. Plates were sealed with gas-permeable seals and incubated at 37° C. for 72 h. […] Fluorescence was read on a Molecular Devices SpectraMax 3 (excitation=555 nm, emission=585 nm, emission cutoff=570 nm). […]
A general note: The colour change of resazurin is a common sign of viable cells or microbes.

Setting [4] is: female, mouse, ip, 40 mg/kg i.p., C57BL/6 mice, serum.

What is called AUC is concentration integrated over time. A low value points to less exposure. A word on the half-life: it is the time needed for the level to fall by half in the phase considered.

T1 sequence (P36969 whole entry): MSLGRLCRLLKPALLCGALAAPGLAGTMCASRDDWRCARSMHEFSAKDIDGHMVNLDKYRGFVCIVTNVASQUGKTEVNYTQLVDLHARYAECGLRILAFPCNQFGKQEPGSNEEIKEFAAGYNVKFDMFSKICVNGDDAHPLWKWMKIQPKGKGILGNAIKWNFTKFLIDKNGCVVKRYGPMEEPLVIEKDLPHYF
T2 sequence (P10599 whole entry): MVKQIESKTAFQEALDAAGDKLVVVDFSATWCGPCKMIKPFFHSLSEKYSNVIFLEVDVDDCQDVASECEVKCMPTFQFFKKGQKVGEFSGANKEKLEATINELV

In data set [1] (setting [4]), `C[C@@H]1CC[C@@]23C[C@H](O)C(=O)[C@@]2(O)[C@]1(C)[C@H](OC(=O)CCl)C[C@@H](C1=CCn2c(=O)n(-c4ccccc4)c(=O)n2C1)[C@@H]3C` [Compound P18, ferroptocide] showed an area under the curve (AUC) of 7040 ng·h/mL and a half-life of 9.96 min. Also, the “pharmacokinetics (in words)” value in data set [1] (mice) is “poor pharmacokinetics”. On GPX4, the GPX4 inhibition result is recorded as “did not result in GPX4 inhibition; also recorded: does not cause direct GPX4 inhibition”. The “inhibition of purified thioredoxin, dose-response” value in data set [2] is “more potent thioredoxin inhibitor than PMX464 and PX-12”. For the same molecule, the “killing of primary cancer cells versus chemotherapeutics” value in data set [3] was “kills these cancer cells better than approved and experimental chemotherapeutics”.
